We go through two molecules from PMC6444013, “Development of a fluorescence-based method for the rapid determination of Zika virus polymerase activity and the screening of antiviral drugs” (Scientific Reports, 2019).

One may read the IC50 as the concentration at which inhibition is half-maximal. Read a low IC50 as greater potency in that assay.

Each structure is given as a SMILES string.

This experiment addresses T1, ZIKV RdRp (ZIKV NS5 RdRp domain) (Zika virus, UniProt A0A0X1LH65).
T1 construct: RdRp domain residues 275-903 of NS5, cut from the genome polyprotein; E. coli BL21(DE3)-pRIL; 75 kDa
As to the kind of experiment: real-time SYTO […] fluorescence polymerization assay. In kind it is biochemical.

T1 sequence (A0A0X1LH65 2795-3423): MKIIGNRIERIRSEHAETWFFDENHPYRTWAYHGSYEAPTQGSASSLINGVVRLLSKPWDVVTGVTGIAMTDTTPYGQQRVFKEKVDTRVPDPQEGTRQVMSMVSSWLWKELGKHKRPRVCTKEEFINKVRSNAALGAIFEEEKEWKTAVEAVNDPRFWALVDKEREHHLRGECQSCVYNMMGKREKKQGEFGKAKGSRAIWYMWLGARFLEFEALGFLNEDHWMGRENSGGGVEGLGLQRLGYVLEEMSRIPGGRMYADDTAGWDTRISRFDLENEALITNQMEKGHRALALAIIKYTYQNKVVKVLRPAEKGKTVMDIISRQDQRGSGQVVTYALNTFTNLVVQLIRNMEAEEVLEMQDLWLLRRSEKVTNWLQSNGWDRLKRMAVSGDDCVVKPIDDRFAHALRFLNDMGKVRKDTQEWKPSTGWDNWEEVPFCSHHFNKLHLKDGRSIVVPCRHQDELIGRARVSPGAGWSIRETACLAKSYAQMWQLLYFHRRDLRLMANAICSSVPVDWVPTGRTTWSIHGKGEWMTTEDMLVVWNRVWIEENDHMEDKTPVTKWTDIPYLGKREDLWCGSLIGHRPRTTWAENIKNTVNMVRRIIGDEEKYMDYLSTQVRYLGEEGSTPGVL

Molecule `Nc1ncnc2c1ncn2[C@@H]1O[C@H](COP(=O)(O)OP(=O)(O)OP(=O)(O)O)C[C@H]1O` [cordycepin 5′-triphosphate] yielded an IC50 of 54 ± 7 µM.
To `NC(=O)c1ncn([C@@H]2O[C@H](CO[P@@](=O)(O)O[P@](=O)(O)OP(=O)(O)O)[C@@H](O)[C@H]2O)n1` [ribavirin 5′-triphosphate] belongs 946 ± 46 µM.
